Experimental findings from patent publication US12281057B2 (VERTEX PHARMACEUTICALS INCORPORATED, priority 2017, dated 2025) are described below.

In this assay the target is truncated form of human NaV 1.8 with full channel activity (Homo sapiens, UniProt Q9Y5Y9). The assay is described as follows: E-VIPR Assay Method A for detecting and measuring Nav inhibition (HEK cells, membrane potential FRET dyes, electrical stimulation). The note with it: HEK cells expressing human NaV 1.8, HS (human serum) in compound loading buffer, 11 point dose response, top dose 3 μM, Table 20A, read-out: Nav 1.8 MedChem Optical Assay EVIPR Assay Method A HS IC50. It is filed as cell-based. The essentials: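 Read-out: FRET membrane-potential dye ratio (460/580 nm) before and during E-VIPR field stimulation at 10 Hz for 10 s, expressed as % activity between DMSO and positive controls. Cells: HEK with truncated human NaV1.8; compound preincubated 30 min at room temp, final DMSO 0.625%.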
Sequence of truncated form of human NaV 1.8 with full channel activity (Q9Y5Y9 126-1722 limits assumed): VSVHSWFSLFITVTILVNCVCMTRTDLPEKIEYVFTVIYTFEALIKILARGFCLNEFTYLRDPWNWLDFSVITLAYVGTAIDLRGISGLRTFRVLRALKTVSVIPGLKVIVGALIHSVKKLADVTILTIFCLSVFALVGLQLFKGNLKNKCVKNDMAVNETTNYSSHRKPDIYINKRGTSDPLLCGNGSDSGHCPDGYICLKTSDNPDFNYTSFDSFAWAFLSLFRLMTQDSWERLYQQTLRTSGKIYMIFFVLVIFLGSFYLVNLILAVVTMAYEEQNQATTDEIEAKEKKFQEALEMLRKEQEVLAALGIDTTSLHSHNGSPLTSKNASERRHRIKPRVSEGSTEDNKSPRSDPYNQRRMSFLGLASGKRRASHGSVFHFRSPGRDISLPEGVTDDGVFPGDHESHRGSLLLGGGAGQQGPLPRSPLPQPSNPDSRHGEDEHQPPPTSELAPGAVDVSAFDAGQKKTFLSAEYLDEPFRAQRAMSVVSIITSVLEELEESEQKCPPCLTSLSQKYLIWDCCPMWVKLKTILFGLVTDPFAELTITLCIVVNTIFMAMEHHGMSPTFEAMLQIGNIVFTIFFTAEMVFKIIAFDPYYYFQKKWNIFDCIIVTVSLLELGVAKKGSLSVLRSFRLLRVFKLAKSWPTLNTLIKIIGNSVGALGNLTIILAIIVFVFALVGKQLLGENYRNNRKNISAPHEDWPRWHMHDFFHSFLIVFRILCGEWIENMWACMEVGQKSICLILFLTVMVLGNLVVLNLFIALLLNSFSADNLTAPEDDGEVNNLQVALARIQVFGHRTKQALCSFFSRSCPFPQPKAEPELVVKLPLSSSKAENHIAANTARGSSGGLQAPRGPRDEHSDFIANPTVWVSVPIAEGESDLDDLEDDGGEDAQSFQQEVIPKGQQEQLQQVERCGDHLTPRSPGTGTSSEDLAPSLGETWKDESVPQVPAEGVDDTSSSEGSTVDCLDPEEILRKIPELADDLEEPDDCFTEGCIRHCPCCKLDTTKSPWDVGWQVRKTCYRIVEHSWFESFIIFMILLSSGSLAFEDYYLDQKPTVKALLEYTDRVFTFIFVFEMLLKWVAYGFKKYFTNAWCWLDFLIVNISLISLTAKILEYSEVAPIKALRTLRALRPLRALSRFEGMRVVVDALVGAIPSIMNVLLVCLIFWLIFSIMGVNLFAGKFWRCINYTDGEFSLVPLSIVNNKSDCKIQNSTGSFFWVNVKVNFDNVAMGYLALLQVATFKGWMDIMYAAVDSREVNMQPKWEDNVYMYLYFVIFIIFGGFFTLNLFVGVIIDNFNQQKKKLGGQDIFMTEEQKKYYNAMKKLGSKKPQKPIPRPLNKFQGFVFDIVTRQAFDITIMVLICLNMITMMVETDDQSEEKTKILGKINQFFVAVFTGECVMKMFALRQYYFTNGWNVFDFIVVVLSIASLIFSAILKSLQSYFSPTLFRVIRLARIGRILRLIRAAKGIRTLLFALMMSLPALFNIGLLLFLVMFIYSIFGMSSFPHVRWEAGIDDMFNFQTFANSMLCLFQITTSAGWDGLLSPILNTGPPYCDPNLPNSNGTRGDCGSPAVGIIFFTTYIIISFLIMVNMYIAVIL
Usually IC50 stands for the concentration at which inhibition is half-maximal. Take `[2H]C([2H])([2H])Oc1cc(OC(F)(F)F)ccc1Oc1ccc(C(F)(F)F)c(F)c1C(=O)Nc1cc(C(N)=O)ncc1C` [Compound 137, 4-[[2-Fluoro-6-[2-(trideuteriomethoxy)-4-(trifluoromethoxy)phenoxy]-3-(trifluoromethyl)benzoyl]amino]-5-methyl-pyridine-2-carboxamide]: the IC50 came to 5 nM.
`COc1cc(OC(F)(F)F)ccc1Oc1cncc(OC)c1C(=O)Nc1ccc(F)c(C(N)=O)c1` [Compound 138, N-(3-Carbamoyl-4-fluoro-phenyl)-3-methoxy-5-[2-methoxy-4-(trifluoromethoxy)phenoxy]pyridine-4-carboxamide]: the IC50 was determined as 1400 nM.
The value for `COc1cc(OC(F)(F)F)ccc1Oc1cc(C(F)(F)F)cc(F)c1C(=O)Nc1cc(C(N)=O)c(F)cc1C` [Compound 139, 2-Fluoro-5-[[2-fluoro-6-[2-methoxy-4-(trifluoromethoxy)phenoxy]-4-(trifluoromethyl)benzoyl]amino]-4-methyl-benzamide] was 85 nM; that for `COc1cc(OC(F)(F)F)ccc1Oc1cc(C(F)(F)F)cc(F)c1C(=O)Nc1ccc(F)c(C(N)=O)c1` [Compound 140, N-(3-Carbamoyl-4-fluoro-phenyl)-2-fluoro-6-[2-methoxy-4-(trifluoromethoxy)phenoxy]-4-(trifluoromethyl)benzamide] was 5 nM; that for `NC(=O)c1cc(NC(=O)c2c(Oc3ccc(OC(F)(F)F)c(O)c3)ccc(C(F)(F)F)c2F)ccc1F` [Compound 141, N-(3-Carbamoyl-4-fluoro-phenyl)-2-fluoro-6-[3-hydroxy-4-(trifluoromethoxy)phenoxy]-3-(trifluoromethyl)benzamide] was 103 nM.
The value for `NC(=O)c1cc(NC(=O)c2c(Oc3ccc(OC(F)(F)F)cc3O)ccc(C(F)(F)F)c2F)ccc1F` [Compound 142, N-(3-Carbamoyl-4-fluoro-phenyl)-2-fluoro-6-[2-hydroxy-4-(trifluoromethoxy)phenoxy]-3-(trifluoromethyl)benzamide] was 310 nM; that for `COc1cc(OC(F)(F)F)ccc1Oc1cnc(C(F)(F)F)c(F)c1C(=O)Nc1cc(C(N)=O)ncc1C` [Compound 143, N-(2-Carbamoyl-5-methyl-4-pyridyl)-3-fluoro-5-[2-methoxy-4-(trifluoromethoxy)phenoxy]-2-(trifluoromethyl)pyridine-4-carboxamide] was 10 nM; that for `COc1cc(OC(F)(F)F)ccc1Oc1cnc(C(F)(F)F)c(OC)c1C(=O)Nc1cc(C(N)=O)ncc1C` [Compound 144, N-(2-Carbamoyl-5-methyl-4-pyridyl)-3-methoxy-5-[2-methoxy-4-(trifluoromethoxy)phenoxy]-2-(trifluoromethyl)pyridine-4-carboxamide] was 23 nM.
The value for `[2H]C([2H])([2H])Oc1cc(OC(F)(F)F)ccc1Oc1ccc(C(F)(F)F)c(F)c1C(=O)Nc1ccc(C)c(C(N)=O)c1` [Compound 145, N-(3-carbamoyl-4-methyl-phenyl)-2-fluoro-6-[2-(trideuteriomethoxy)-4-(trifluoromethoxy)phenoxy]-3-(trifluoromethyl)benzamide] was 9 nM; that for `[2H]C([2H])([2H])Oc1cc(OC(F)(F)F)ccc1Oc1ccc(C(F)(F)F)c(OC)c1C(=O)Nc1cc(C(N)=O)ncc1C` [Compound 146, 4-[[2-Methoxy-6-[2-(trideuteriomethoxy)-4-(trifluoromethoxy)phenoxy]-3-(trifluoromethyl)benzoyl]amino]-5-methyl-pyridine-2-carboxamide] was 39 nM; that for `[2H]C([2H])([2H])Oc1cc(OC(F)(F)F)ccc1Oc1cc(OC(F)(F)F)ccc1C(=O)Nc1ccnc(C(N)=O)c1` [Compound 147, 4-[[2-[2-(Trideuteriomethoxy)-4-(trifluoromethoxy)phenoxy]-4-(trifluoromethoxy)benzoyl]amino]pyridine-2-carboxamide] was 130 nM.
Regarding `COc1cc(F)ccc1Oc1cc(OC(F)(F)F)ccc1C(=O)Nc1ccnc(C(N)=O)c1` [Compound 148, 4-[[2-(4-Fluoro-2-methoxy-phenoxy)-4-(trifluoromethoxy)benzoyl]amino]pyridine-2-carboxamide], the IC50 was found to be 850 nM.
The value for `NC(=O)c1cc(NC(=O)c2ccc(OC(F)(F)F)cc2Oc2ccc(OC(F)(F)F)cc2)ccn1` [Compound 149, 4-[[4-(Trifluoromethoxy)-2-[4-(trifluoromethoxy)phenoxy]benzoyl]amino]pyridine-2-carboxamide] was 1500 nM; that for `COc1cc(OC(F)(F)F)ccc1Oc1ccc(Cl)cc1C(=O)Nc1cc(C(N)=O)ncc1C` [Compound 150, 4-[[5-Chloro-2-[2-methoxy-4-(trifluoromethoxy)phenoxy]benzoyl]amino]-5-methyl-pyridine-2-carboxamide] was 290 nM.
Regarding `COc1cc(OC(F)(F)F)ccc1Oc1cncc(F)c1C(=O)Nc1cc(C(N)=O)ncc1C` [Compound 151, 4-[[3-Fluoro-5-[2-methoxy-4-(trifluoromethoxy)phenoxy]pyridine-4-carbonyl]amino]-5-methyl-pyridine-2-carboxamide], the IC50 stood at 520 nM.
Turning to `COc1cc(OC(F)(F)F)ccc1Oc1ccc(C(F)(F)F)c(F)c1C(=O)Nc1cc(C(N)=O)ncc1Cl` [Compound 152, 5-Chloro-4-[[2-fluoro-6-[2-methoxy-4-(trifluoromethoxy)phenoxy]-3-(trifluoromethyl)benzoyl]amino]pyridine-2-carboxamide], the concentration for half-maximal inhibition (IC50) amounted to 17 nM.
The value for `COc1cc(OC(F)(F)F)ccc1Oc1cc(C(F)(F)F)cc(F)c1C(=O)Nc1cc(C(N)=O)ncc1C` [Compound 153, 4-[[2-Fluoro-6-[2-methoxy-4-(trifluoromethoxy)phenoxy]-4-(trifluoromethyl)benzoyl]amino]-5-methyl-pyridine-2-carboxamide] was 22 nM; that for `[2H]C([2H])([2H])Oc1cc(OC(F)(F)F)ccc1Oc1cc(C(F)(F)F)cc(F)c1C(=O)Nc1ccc(C(N)=O)nc1` [Compound 154] was 55 nM; that for `[2H]C([2H])([2H])Oc1cc(OC(F)(F)F)ccc1Oc1ccc(OC(F)F)c(F)c1C(=O)Nc1ccnc(C(N)=O)c1` [Compound 155, 4-[[3-(Difluoromethoxy)-2-fluoro-6-[2-(trideuteriomethoxy)-4-(trifluoromethoxy)phenoxy]benzoyl]amino]pyridine-2-carboxamide] was 17 nM.
With `NC(=O)c1cc(NC(=O)c2cc(OC(F)(F)F)ccc2Oc2ccc(OC(F)(F)F)cc2)ccn1` [Compound 156, 4-[[5-(Trifluoromethoxy)-2-[4-(trifluoromethoxy)phenoxy]benzoyl]amino]pyridine-2-carboxamide], the IC50 was found to be 560 nM.
As for `COc1cc(F)ccc1Oc1ccc(OC(F)(F)F)cc1C(=O)Nc1ccnc(C(N)=O)c1` [Compound 157, 4-[[2-(4-Fluoro-2-methoxy-phenoxy)-5-(trifluoromethoxy)benzoyl]amino]pyridine-2-carboxamide], the figure is 1000 nM; as for `[2H]C([2H])([2H])Oc1cc(OC(F)(F)F)ccc1Oc1ccc(OC(F)(F)F)cc1C(=O)Nc1ccnc(C(N)=O)c1` [Compound 158, 4-[[2-[2-(Trideuteriomethoxy)-4-(trifluoromethoxy)phenoxy]-5-(trifluoromethoxy)benzoyl]amino]pyridine-2-carboxamide], 150 nM.
The value for `COc1cc(F)ccc1Oc1cc(C(F)(F)F)cc(C(F)(F)F)c1C(=O)Nc1ccc(C(N)=O)nc1` [Compound 159, 5-[[2-(4-Fluoro-2-methoxy-phenoxy)-4,6-bis(trifluoromethyl)benzoyl]amino]pyridine-2-carboxamide] was 1700 nM.
Turning to `NC(=O)c1cc(NC(=O)c2c(Oc3ccc(OC(F)(F)F)cc3)cc(C(F)(F)F)cc2C(F)(F)F)ccn1` [Compound 160, 4-[[2-[4-(Trifluoromethoxy)phenoxy]-4,6-bis(trifluoromethyl)benzoyl]amino]pyridine-2-carboxamide], the IC50 came to 410 nM.
As to `[2H]C([2H])([2H])Oc1cc(OC(F)(F)F)ccc1Oc1ccc(C(F)(F)F)c(F)c1C(=O)Nc1cnc(C(N)=O)cc1C` [Compound 161, 5-[[2-fluoro-6-[2-(trideuteriomethoxy)-4-(trifluoromethoxy)phenoxy]-3-(trifluoromethyl)benzoyl]amino]-4-methyl-pyridine-2-carboxamide], the IC50 was determined as 150 nM.
The value for `COc1cc(F)ccc1-c1cc(C(F)(F)F)ccc1C(=O)Nc1ccc(F)c(C(N)=O)c1` [Compound 162, N-(3-carbamoyl-4-fluoro-phenyl)-2-(4-fluoro-2-methoxy-phenyl)-4-(trifluoromethyl)benzamide] was 170 nM; that for `COc1cc(OC(F)(F)F)ccc1Oc1cc(C(F)(F)F)cc(F)c1C(=O)Nc1ccnc(C(N)=O)c1` [Compound 163, 4-[[2-Fluoro-6-[2-methoxy-4-(trifluoromethoxy)phenoxy]-4-(trifluoromethyl)benzoyl]amino]pyridine-2-carboxamide] was 11 nM; that for `COc1cc(OC(F)(F)F)ccc1Oc1cncc(F)c1C(=O)Nc1ccc(F)c(C(N)=O)n1` [Compound 164, 3-Fluoro-6-[[3-fluoro-5-[2-methoxy-4-(trifluoromethoxy)phenoxy]pyridine-4-carbonyl]amino]pyridine-2-carboxamide] was 1600 nM.
With `COc1cc(OC(F)(F)F)ccc1Oc1cncc(F)c1C(=O)Nc1ccnc(C(N)=O)c1` [Compound 165, N-(2-Carbamoyl-4-pyridyl)-3-fluoro-5-[2-methoxy-4-(trifluoromethoxy)phenoxy]pyridine-4-carboxamide], the half-maximal inhibitory concentration (IC50) worked out at 340 nM.
With `COc1cc(OC(F)(F)F)ccc1Oc1cnc(C(F)(F)F)c(OC)c1C(=O)Nc1ccnc(C(N)=O)c1` [Compound 166, N-(2-Carbamoyl-4-pyridyl)-3-methoxy-5-[2-methoxy-4-(trifluoromethoxy)phenoxy]-2-(trifluoromethyl)pyridine-4-carboxamide], the IC50 is 5 nM.
